Measurements from patent US20250186469A1, “THERAPEUTIC AGENT FOR OVARIAN CLEAR CELL CARCINOMA” (JSR CORPORATION, priority 2022, published 2025).

Experiments:
[1] = test system: ovarian clear cell carcinoma organoid CCC19-042; assay: Drug sensitivity test for immunodeficient mouse transplanted with ovarian clear cell carcinoma organoid; format: in vivo; settings: 1 mg/kg intraperitoneally twice a week from the 7th day after transplantation, versus DMSO vehicle; FIG. 15C
Procedure: The ovarian clear cell carcinoma organoid CCC19-042 was cultured until it reached a diameter of approximately 50 to 100 μm. The organoid was recovered in a 50 mL tube after removing the culture medium from the plate and then suspending the organoid in a Cell Recovery Solution (Corning, 354235). The solution including the recovered organoid was placed on ice and the Matrigel was depolymerized. After the completion of the reaction, the organoid was washed with a culture medium and re-suspended in the Matrigel so that 1×10^6 cells were present in 100 μL.
The organoid corresponding to 1×10^6 cells was transplanted subcutaneously (left shoulder) in an immunodeficient mouse, and the tumor forming ability was evaluated on the 7th day after the transplantation. In addition, a thinly sliced slide was created from an FFPE section of the tumor and subjected to HE staining and HNF1β immunostaining.
With regard to the immunodeficient mouse transplanted with the ovarian clear cell carcinoma organoid shown in Experimental Example 9, administration, measurement of a weekly body weight, and calculation of a tumor volume were performed from the 7th day after transplantation. […]
The tumor volume was calculated by the following expression.

[2] = test system: ovarian clear cell carcinoma organoid; assay: Sensitivity test of ovarian clear cell carcinoma organoid (cell viability by ATP activity); format: cell-based, human; settings: exposed for 3 days at 0.0001 to 10 μM, FIGS. 13, 14, 17
Procedure: Based on the above-described results of HTDS, the test focused on the proteasome inhibitors that were found with multiple hits among the 9 hit compounds. A proteasome inhibitor (bortezomib, carfilzomib, and ixazomib), a microtubule inhibitor (paclitaxel), and a platinum formulation (cisplatin and carboplatin) were prepared at each of final concentrations of 0.0001 μM, 0.001 µM, 0.01 μM, 0.1 μM, 1 μM, and 10 μM, the ovarian clear cell carcinoma organoid was exposed to each of the concentrations for 3 days, and the cell viability was measured by measuring the ATP activity.
FIGS. 13 and 14 show graphic views of the results of the measured cell viabilities.
For the CDK 1, 2, 5, and 9 inhibitor (dinaciclib) that was hit in the 9 compounds that were hit more in HTDS, the cell viability was measured by measuring an ATP activity in the same manner as in Experimental Example 8.

[3] = test system: ovarian cancer organoid; assay: Sensitivity test of ovarian cancer organoid to PARP inhibitor (cell viability by ATP activity); format: cell-based, human; settings: exposed for 3 days at 0.0001 to 10 μM; each cell line; FIG. 7
Procedure: A sensitivity test of the ovarian cancer organoid to olaparib was performed. Olaparib which is a kind of PARP inhibitor was prepared at a final concentration of each of 0.0001 μM, 0.001 μM, 0.01 μM, 0.1 μM, 1 μM, and 10 μM, and the ovarian cancer organoid was exposed to olaparib for 3 days at each concentration, and the cell viability was measured by measuring the ATP activity.
The vertical axis indicates the cell viability as a ratio to the control, and the horizontal axis indicates the final concentration (μM) of olaparib.

SMILES	tumor volume [1]	cell viability [2]	cell viability (ratio to the control) [3]
CC(C)C[C@H](NC(=O)[C@H](Cc1ccccc1)NC(=O)c1cnccn1)B(O)O [bortezomib]	decrease in tumor volume	significant decrease in cell viability depending on the concentration	
CC(C)C[C@H](NC(=O)[C@H](CCc1ccccc1)NC(=O)CN1CCOCC1)C(=O)N[C@@H](Cc1ccccc1)C(=O)N[C@@H](CC(C)C)C(=O)[C@@]1(C)CO1 [carfilzomib]		significant decrease in cell viability depending on the concentration	
CC(C)C[C@H](NC(=O)CNC(=O)c1cc(Cl)ccc1Cl)B(O)O [ixazomib]		significant decrease in cell viability depending on the concentration	
O=C(c1cc(Cc2n[nH]c(=O)c3ccccc23)ccc1F)N1CCN(C(=O)C2CC2)CC1 [olaparib]			reduced depending on the concentration
CC(=O)O[C@H]1C(=O)[C@@]2(C)[C@H]([C@H](OC(=O)c3ccccc3)[C@]3(O)C[C@H](OC(=O)[C@H](O)[C@@H](NC(=O)c4ccccc4)c4ccccc4)C(C)=C1C3(C)C)[C@]1(OC(C)=O)CO[C@@H]1C[C@@H]2O [paclitaxel]		significant decrease in cell viability depending on the concentration	
